Experimental data reported in patent US10815275B2, “Antimicrobial peptoids with improved selectivity and use thereof” (priority 2018, dated 2020).
Converted amounts (≈) assume the structure as drawn. Non-standard residues stand in square brackets, D forms with d. Residues, ends and D or L forms follow the SMILES beside them. Nspe = C[C@H](NCC(=O)O)c1ccccc1; Nphe = O=C(O)CNCc1ccccc1; Nlys = NCCCCNCC(=O)O

Key:
[1] = tested on: S. aureus strain KCTC1621; format: cell-based
Experimental: (§1) In order to measure antimicrobial activity of the peptoids, Gram-positive S. aureus strain KCTC1621, or Gram-negative E. coli strain ATCC25922 was treated with the peptoids prepared in Preparation Example 1, and minimum inhibitory concentrations were measured. Peptoid NOS. 1 and 2 are already known peptoids and were used for the purpose of making a comparison with novel peptoids in terms of antimicrobial activity.
(§2) Specifically, S. aureus strain KCTC1621 or E. coli strain ATCC25922 was inoculated into Mueller Hinton Broth (MHB2) liquid medium on which cations were adjusted, cultured at a temperature of 37° C. for 18 hours, and then subcultured for 4 hours. Thereafter, the strains were diluted with MHB2 liquid medium containing 0.2% bovine serum albumin and 0.01% acetic acid so that each bacterial number was 2×10^5 colony-forming units (CFU) per 1 mL, and dispensed into 96-well microtiter plates at 100 μL each. A peptoid stock which is 40-fold more concentrated than a concentration to be tested was added to each well at 2.5 μL or lower so that the peptoid stock was 2-fold serially diluted using sterile water. Thereafter, the plates were incubated at a temperature of 37° C. for 18 hours.
(§3) Thereafter, absorbance was measured at a wavelength of 600 nm using a microplate reader (Bio-Rad). The lowest peptoid concentration that completely suppresses growth of microorganisms was measured by a minimum inhibitory concentration (MIC) and a minimum bactericidal concentration (MBC), and the measurement results are shown in Table 5 below. Each of the MIC values was calculated as an average value of numerical values obtained through three independent experiments.

E. coli strain ATCC25922 = format: cell-based
Experimental: as §1, §2, §3

[2] = tested on: S. epidermidis (ET-024 MRSA); assay: MIC in multidrug-resistant bacteria panel, modified microdilution; format: cell-based; details: overnight, 37° C.
Experimental: (§4) Minimum inhibitory concentrations of the prepared peptoids for multidrug-resistant bacteria were measured using a modified microdilution method in Difco Mueller Hinton medium, and tests were done on a panel of bacterial pathogens which have resistance and tolerance against common antibiotics.
(§5) Briefly, a peptoid concentrate, which is 10-fold more concentrated than a final concentration, was serially diluted with a medium containing 0.2% bovine serum albumin and 0.01% acetic acid. 10 μL of the 10-fold concentrated peptoid concentrate and 90 μL of Muller Hinton medium were added to each well of a 96-well polypropylene microtitre plate. Bacteria were added to the plate so that a final concentration thereof was 2×10^5 CFU/mL, and then incubated overnight at a temperature of 37° C. The minimum inhibitory concentration was defined as a concentration at which no bacterial growth is observed.

E. coli (63103 ESBL) = assay: as above; format: cell-based; details: overnight, 37° C.
Experimental: as §4, §5

P. aeruginosa (198B MDR) = assay: as above; format: cell-based; details: overnight, 37° C.
Experimental: as §4, §5

S. aureus (ATCC25923) = assay: as above; format: cell-based; details: overnight, 37° C.
Experimental: as §4, §5

red blood cells = assay: Hemolytic activity on red blood cells; format: cell-based, mouse
Experimental: In order to identify, through red blood cell hemolytic activity in mice, whether the peptoids synthesized in Preparation Example 1 are cytotoxic, red blood cells isolated from 10 mL of mouse blood were washed three times with phosphate-buffered saline (PBS, mixed solution of 35 mM phosphate buffer/150 mM NaCl, pH 7.4), and then centrifuged at a centrifugal force of 1,000 ×g for 10 minutes. A 10% (v/v) red blood cell solution diluted with PBS was dispensed into a 96-well microtiter plate at 150 μL each, and then a peptide solution was added at 50 μL each. Thereafter, the 96-well microtiter plate was incubated at a temperature of 37° C. for 1 hour.
The incubated 96-well microtiter plate was centrifuged at a centrifugal force of 1,000×g for 5 minutes. Thereafter, supernatant was taken at 100 μL each and transferred to a new 96-well microtiter plate. Then, absorbance at a wavelength of 540 nm was measured (Table 6).
In this case, a value obtained in a case of being treated with 0.1% (v/v) Triton X-100 was set as 100% hemolysis, and hemolytic activity (degree of cell destruction) of the peptoids was calculated using the following Equation 1. In the Equation 1, A is absorbance of the peptoid solution at a wavelength of 540 nm, B is absorbance of 0.1% Triton X-100 at a wavelength of 540 nm, and C is absorbance of the PBS solution at a wavelength of 540 nm. In this case, Peptoid NO. […] Degree of cell destruction (% hemolysis)=(A−C)/(B−C)[…] [Equation 1]
In Table 6, HD10 means a peptoid concentration which causes 10% hemolysis of red blood cells, and HD50 means a peptoid concentration which causes 50% hemolysis of red blood cells. In addition, Hmax is a hemolysis rate (%) at 200 μM which is the highest peptoid concentration used in the experiment.
Hemolytic activity of Peptoid NOS. 1, 18 to 23, and the peptide Pexiganan was measured in the same manner as in Experimental Example 2.

E. coli = assay: Selectivity analysis, HD10 divided by MIC for E. coli; details: HD10 of Table 6 divided by MIC for E. coli ATCC25922
Experimental: In order to identify changes in selectivity depending on alteration of degree of folding in helical structure of peptoids, selectivity of each peptoid was calculated using the resultant values measured in the Experimental Examples 1 and 2. The selectivity was obtained by dividing the HD10 value by the minimum inhibitory concentration for E. coli (Table 8).

in vitro = format: cell-based; details: human
Experimental: In order to determine whether the peptoids were cytotoxic against human cell lines, […] cell line (Korean Cell Line Bank) which is a human lung cell line was cultured in a DMEM (Dulbecco's modified Eagle's medium) culture solution containing 10% (v/v) fetal bovine serum (FBS) at 5% CO2 and a temperature of 37° C. 100 μL of DMEM medium was dispensed into each well of a 96-well microtiter plate so that the number of cells was 1.3×10^4, and then incubated overnight at a temperature of 37° C. in a 5% CO2 incubator. In this case, a DMEM medium was used as a negative control. Thereafter, the peptoid which is 2-fold serially diluted using sterile water was added to each well, and then incubated for 24 hours.
After incubation, 20 μL of an MTS solution [3-(4,5-dimethylthiazol-2-yl)-5-(3-carboxymethoxyphenyl)-2-(4-sulfophenyl)-2H-tetrazolium, inner salt; MTS] was added thereto and incubated at a temperature of 37° C. for 4 hours. Thereafter, % survival was calculated by measuring absorbance at a wavelength of 490 nm using an ELISA reader. The % survival was calculated as a percentage obtained by dividing the absorbance value for a well-treated with the peptoid by the absorbance value for a well containing control cells which had not been treated with the peptoid.

B. subtilis = format: cell-based; details: 18 h
Experimental: (§6) In order to measure antimicrobial activity of the peptoids, Gram-positive B. subtilis or Gram-negative E. coli strain DH5α was treated with Peptoid NOS. 1, 18 to 23, and the peptide Pexiganan, and minimum inhibitory concentrations were measured. Peptoid NOS. 1 and 2, and the peptide Pexiganan are already known antimicrobial peptoids and peptides, and were used for the purpose of making a comparison with novel peptoids in terms of antimicrobial activity.
(§7) Specifically, B. subtilis or E. coli DHS a was inoculated into LB liquid medium, and cultured at a temperature of 37° C. for 18 hours. Thereafter, the bacteria were diluted with LB medium so that each bacterial number was 2×10^5 colony-forming units (CFU) per 1 mL, and dispensed into 96-well microtiter plates at 100 μL each. The peptoid, which is 2-fold serially diluted using sterile water, was added to each well at 100 μL each. The plates were incubated at a temperature of 37° C. for 18 hours.
as §3, with “(MIC),” for “(MIC) and a minimum bactericidal concentration (MBC),”, “12” for “5”, “minimum inhibitory concentration” for “MIC”

E. coli strain DH5α = assay: Antimicrobial activity of peptoids with altered cationic residues, MIC; format: cell-based; details: LB medium, 18 h
Experimental: as §6, §7
as §3, with “(MIC),” for “(MIC) and a minimum bactericidal concentration (MBC),”, “12” for “5”, “minimum inhibitory concentration” for “MIC”

Row | MIC S. aureus ([1]; KCTC1621, 18 h) [µM] | MIC E. coli (E. coli strain ATCC25922; ATCC25922, 18 h) [µM] | Selectivity [HD10/MIC (E. coli)] (E. coli) | Structure (SMILES) | MBC S. aureus ([1]; KCTC1621) [µM] | MBC E. coli (E. coli strain ATCC25922; ATCC25922) [µM] | minimum inhibitory concentration S. epidermidis (ET-024 MRSA) [2] | minimum inhibitory concentration E. coli (63103 ESBL) (E. coli (63103 ESBL)) | minimum inhibitory concentration P. aeruginosa (198B MDR) (P. aeruginosa (198B MDR)) | minimum inhibitory concentration S. aureus (ATCC25923) (S. aureus (ATCC25923)) | HD10 (red blood cells) | HD50 (red blood cells) | CC50 at 24 h (in vitro) [µM] | MIC B. subtilis (B. subtilis) [µM] | MIC E. coli (E. coli strain DH5α) [µM]
1 | 3.1 (≈ 5.42 µg/mL) | 12.5 (≈ 21.9 µg/mL) | 2.1 | C[C@@H](c1ccccc1)N(CC(=O)N(CCCCN)CC(=O)N(CC(=O)N(CC(=O)N(CCCCN)CC(=O)N(CC(=O)N(CC(N)=O)Cc1ccccc1)Cc1ccccc1)[C@@H](C)c1ccccc1)[C@@H](C)c1ccccc1)C(=O)CN(Cc1ccccc1)C(=O)CN(CCCCN)C(=O)CN(Cc1ccccc1)C(=O)CN(Cc1ccccc1)C(=O)CNCCCCN [compound 15] (H-[Nlys][Nphe][Nphe][Nlys][Nphe][Nspe][Nlys][Nspe][Nspe][Nlys][Nphe][Nphe]-NH2) | 3.1 (≈ 5.42 µg/mL) | 25 (≈ 43.7 µg/mL) | <0.8 to 0.8 | 6.3 | 6.3 | 3.1 | 26.8 | 155.8 |  |  | 
2 |  |  |  | C[C@@H](c1ccc(Cl)cc1)N(CC(N)=O)C(=O)CN(C(=O)CN(CCCCN)C(=O)CN(C(=O)CN(C(=O)CN(CCCCN)C(=O)CN(C(=O)CN(C(=O)CN(CCCCN)C(=O)CN(C(=O)CN(C(=O)CNCCCCN)[C@@H](C)c1ccc(Cl)cc1)[C@@H](C)c1ccc(Cl)cc1)[C@@H](C)c1ccc(Cl)cc1)[C@@H](C)c1ccc(Cl)cc1)[C@@H](C)c1ccc(Cl)cc1)[C@@H](C)c1ccc(Cl)cc1)[C@@H](C)c1ccc(Cl)cc1 [compound 19] |  |  |  |  |  |  | < 6.25 | 10.4 | 3 | 6.1 (≈ 12.8 µg/mL) | >6.1
3 |  |  |  | Cc1ccc([C@H](C)N(CC(N)=O)C(=O)CN(C(=O)CN(CCCCN)C(=O)CN(C(=O)CN(C(=O)CN(CCCCN)C(=O)CN(C(=O)CN(C(=O)CN(CCCCN)C(=O)CN(C(=O)CN(C(=O)CNCCCCN)[C@@H](C)c2ccc(C)cc2)[C@@H](C)c2ccc(C)cc2)[C@@H](C)c2ccc(C)cc2)[C@@H](C)c2ccc(C)cc2)[C@@H](C)c2ccc(C)cc2)[C@@H](C)c2ccc(C)cc2)[C@@H](C)c2ccc(C)cc2)cc1 [compound 20] |  |  |  |  |  |  | < 6.25 | 8.3 | 8 | 0.8 (≈ 1.55 µg/mL) | >6.1
